In US12065494B2, “Combination therapy comprising an FGFR inhibitor and a Nectin-4 targeting agent” (Incyte Corporation, priority 2021, dated 2024):

What was measured:
[1] = tested on: RT112/84 bladder cancer xenograft model; experiment: RT112/84 xenograft model, tumor growth (6 groups); type: in vivo, mice
Procedure: The in vivo effect of combining pemigatinib plus EV (Padcev, Refdrug Inc.) was assessed in the RT112/84 bladder cancer (85061106, Sigma/ECACC, UK) xenograft model (FIG. 4) in 6 to 8 weeks old NSG mice (Jackson laboratories). Pemigatinib was suspended in 5% N,N-dimethyl acetamide (DMAC)+50 mM Citrate buffer in 0.5% methyl cellulose for oral administration and EV was suspended in saline for intravenous administration. Briefly, the left flank of the mice were shaved the day prior to subcutaneous inoculation with 2×10^6 RT112/84 suspended in matrigel (Corning Life Sciences, Tewksbury, Mass.). On day 7, tumor dimensions were measured by Vernier calipers, and volume estimated by the formula Volume=[L (long dimension)×W2 (short dimension)]/2. Mice were randomized into 6 groups of 10 mice of approximate mean volume (˜200 mm^3). Tumors were measured 3 times per week for the duration of the study. Starting day 7, mice were dosed with (i) vehicle; (ii) 0.3 mg/kg of pemigatinib; (iii) 1 mg/kg of pemigatinib; (iv) 3 mg/kg of EV; (v) 0.3 mg/kg of pemigatinib and 3 mg/kg of EV; or (vi) 1 mg/kg of pemigatinib and 3 mg/kg of EV. Pemigatinib was administered orally once daily (QD) for 10 days, while EV was dosed every 4 days (for a total of 2 doses).

Nectin-4 [2] = experiment: RT112/84 in vivo Nectin-4 receptor density (xenograft, flow cytometry); conditions: RT112/84 tumor bearing NSG mice; pemigatinib 0.3 or 1 mg/kg oral, EV 3 mg/kg intravenous; tumors collected 4 h post dose
Procedure: The effect of combining pemigatinib plus EV (Padcev, Refdrug Inc.) on Nectin-4 receptor density was also assessed in vivo in the RT112/84 bladder cancer xenograft model (FIG. 2B) in 6 to 8 weeks old NSG mice (Jackson laboratories). Pemigatinib was suspended in 5% N,N-dimethyl acetamide (DMAC)+50 mM Citrate buffer in 0.5% methyl cellulose for oral administration and EV was suspended in saline for intravenous administration. Briefly, the left flanks of the mice were shaved the day prior to subcutaneous inoculation with 2×10^6 RT112/84 suspended in matrigel (Corning Life Sciences, Tewksbury, Mass.). On day 16, mice were dosed with (i) vehicle; (ii) 0.3 mg/kg of pemigatinib; (iii) 1 mg/kg of pemigatinib; (iv) 3 mg/kg of EV; (v) 0.3 mg/kg of pemigatinib and 3 mg/kg of EV; or (vi) 1 mg/kg of pemigatinib and 3 mg/kg of EV, and tumors were collected 4 h post dose.

[3] = tested on: UM-UC-14 cancer xenograft model; experiment: UM-UC-14 xenograft model, tumor growth; type: in vivo, mice; conditions: single agent
Nectin-4 [4] = experiment: RT112/84 in vitro Nectin-4 receptor density (flow cytometry); type: cell-based; conditions: RT112/84 cells; 100 nM pemigatinib, 100 nM EV or both; different time points after treatment
Procedure: The effect of combining pemigatinib plus enfortumab vedotin (“EV”) (Padcev, Refdrug Inc.) on Nectin-4 receptor density was assessed in vitro in the RT112/84 bladder cancer cell line. Briefly, RT112/84 cells were treated with either 100 nM pemigatinib, 100 nM EV, or the combination of both. The receptor density of Nectin-4 was then assessed by flow cytometry upon a LSRFortessa X-20 instrument (BD Biosciences) with Quantibrite phycoerythrin (PE) beads (BD Biosciences Cat No 340495) using an anti-Nectin-4 PE conjugated antibody (RnD Systems Cat No FAB2659) at different time points after treatment (FIG. 2A).

ERK = experiment: RT112/84 in vivo pERK inhibition (tumor lysates, MSD); conditions: RT112/84 tumor bearing NSG mice; pemigatinib 1 mg/kg oral, EV 3 mg/kg intravenous; tumors collected 4 h post dose
Procedure: Tumors were then processed and levels of phospho ERK were assessed on tumor lysates by MSD (Mesoscale).

[5] = pemigatinib 0.3 mg/kg oral QD for 10 days
[6] = pemigatinib 1 mg/kg oral QD for 10 days

CCN1C(=O)N(c2c(F)c(OC)cc(OC)c2F)Cc2cnc3[nH]c(CN4CCOCC4)cc3c21 [pemigatinib, 3-(2,6-difluoro-3,5-dimethoxyphenyl)-1-ethyl-8-(morpholin-4-ylmethyl)-1,3,4,7-tetrahydro-2H-pyrrolo[3′,2′:5,6]pyrido[4,3-d]pyrimidin-2-one]
therapeutic effect in delaying tumor growth vs vehicle [1, 5]: all the treatments, with the exemption of pemigatinib 0.3 mg/kg, had a therapeutic effect | therapeutic effect in delaying tumor growth vs vehicle [1, 6]: had a therapeutic effect in delaying tumor growth | Nectin-4 receptor density in tumor cells (Nectin-4 [2]): did not induce changes in Nectin-4 receptor density | therapeutic effect in delaying tumor growth vs vehicle [3, 5]: only pemigatinib 1 mg/kg treatment had a therapeutic effect | therapeutic effect in delaying tumor growth vs vehicle [3, 6]: had a therapeutic effect in delaying tumor growth as single agent | Nectin-4 receptor density (Nectin-4 [4]): did not induce changes in Nectin-4 receptor density | phosphorylation of ERK in tumor (ERK): decrease phosphorylation of ERK
